# Test results reported in patent US11672786B2, “Methods of treating diseases associated with repeat instability” (The Hospital for Sick Children, priority 2016, dated 2023).
# Legend:
# [1] = system: CAG/CTG R-loops processed by neuron-like human SH-SY5Y cell extracts; assay: R-loop processing by SH-SY5Y cell extracts, STRIP assay; type: biochemical; settings: NA 50 μM; p=0.002
# Description: Double-R-loops were then treated with RNaseA or H (labeled “A” or “H”) and incubated with 50 μM of NA. Reaction products were then resolved on 1% agarose gel. […] Pre-formed double-R-loops were processed by terminally differentiated (retinoic acid) human neuron-like cell extracts (SH-SY5Y) in the absence or presence of NA (50 μM), as described and DNA repeat lengths were assessed as expansions, contractions, or stable, by the STRIP assay. […] Transcription products were isolated, processed and transformed in E. coli cells, previously shown to stably maintain the (CAG)79●(CTG)79 lengths. Plasmids isolated from individual bacterial colonies were digested with restriction enzymes to release the repeat containing fragment, resolved on 4% polyacrylamide gels and scored for instability.
# R-loop templates prepared from in vitro transcription and RNase A treatments were incubated with NA and then processed by extracts of HeLa or SH-SY5Y neuroblastoma cells, where the latter were terminally differentiated by retinoic acid, as previously described (Panigrahi et al., 2005, Nat. Struct. & Mol. Biol., 12:654-62). […] Miniprep DNA was analyzed for changes in repeat length by analysis of the repeat-containing fragment on 4% polyacrylamide gels. […]
# [2] = system: Huntington's disease R6/2 transgenic mice, striatum; assay: stereotaxic intra-striatal injections into R6/2 mice, CAG length Genescan analysis and instability index; type: in vivo, mouse
# Description: This calculation corrects background using a relative height threshold and normalizes data efficiently, generating an “instability index” that represents the mean CAG length change from the main allele per cell in a population of cells: greater indices reflect greater expansions, lower indices-lower expansions.
# Mouse handling and experimental procedures were conducted in accordance with the Osaka University guidelines for the welfare of animals. A single drug application involved six separate stereotactic injections, three injections of drug or saline into three different striatal regions of either the left or right striatum, respectively (outlined in FIG. 24). Under sterile conditions, 6-week-old R6/2 mice were anesthetized with 50 mg/kg pentobarbital sodium, and stereotaxically injected with 5 μl of saline (right side) or 500 μM NA dissolved in saline (left side) into three different sites of the striatum. The mice received injections once or twice bi-weekly, or weekly for 4 consecutive weeks. Stereotaxic injections were delivered to three sites within the striatum with the following coordinates: (anterior-posterior (AP)=0.0 mm, medial-lateral (ML)=1.5 mm from bregma, dorsal-ventral (DV)=2.5 mm below the dural surface; AP=1.0 mm, ML=1.5 mm, DV=2.5 mm; and AP=0.5 mm, ML=1.5 mm, DV=2.5 mm), using a 10-μl Hamilton microsyringe at a rate of 0.5 μL/min. Refer to FIG. 24 outlining dosing regimen. […] The control of our NA treatment is therefore the contralateral side of the striatum of each mouse. Both right and left striatum were assessed for repeat length at the HD CAG transgene and at endogenous, long CAG tracts. For the mice treated four times, DNAs from the tail prior to and following NA administration, as well as left and right frontal cortex and left and right cerebellum were harvested.
# At 4 weeks after the first injection, DNA was isolated from mouse brain tissue as previously described (Nakamori et al. 2009, Neuromuscul. Disord., 19:759-62). PCR was performed as described previously (Tome et al., 2013, PLoS Genet., 9:e1003280), and PCR products were sized on an ABI310 Gene Analyser using […] 3.1 software (Life Technologies).
# The procedure for instability index calculation was done as previously described (Lee et al., 2010, BMC Syst. Biol., 4:29) and is illustrated and outlined in FIG. 27A.
# [3] = system: clustered short slip-outs on (CAG)50●(CTG)50 (S-DNA); assay: band-shift NA-DNA binding, clustered short slip-outs (S-DNA); design: species or system human; settings: NA 0.15-50 μM, 4% polyacrylamide gel
# From the text: FIG. 2 are the results of experiments showing that NA binds to long CAG slip-outs. […] The (CAG)n DNA sequence (left) can fold into an hairpin structure involving mismatched A-A pair flanking C-G base pairs (middle). NA molecules can intercalate into the DNA helix, with the 2-amino-1,8-naphthyridine moiety (in red) hydrogen bonding to guanine and 8-azaquinolone moiety (in blue) hydrogen bonding to adenine. […] Long slip-outs extruded as a single slip-out from a fully base-paired backbone of (CTG)n●(CAG)n, as described (Pearson et al., 2002, Nuc. Acids Res., 30:4534-47). DNAs were mixed with increasing concentrations of NA (0.15 μM, 0.75 μM, 7.5 μM and 50 μM) and resolved on 4% polyacrylamide gels. All lanes are from the same gel, and they were separated for clarity. NA-DNA complexes are shown by brackets, free DNA is indicated by arrowheads. […] The relative migration was measured for the linear and the three slip-outs substrates as the ratio of the migration distance of each NA-DNA complex to the migration distance of the free DNA. The migration distance was measured from the well to a consistent center point of each band. […]
substance,measurement,setting,value
naphthyridine-azaquinolone,"effect on R-loop processing products (contractions, expansions)",[1],significantly increasing the number of contraction products but not expansion products
same,instability index of striatum,"[2]; 1, 2 and 4 administrations",progressively reduced
same,effect on expanded repeat relative to saline-injected contralateral striatum,"[2]; 6-week-old R6/2 mice, repeated intra-striatal injections over four weeks",led to seeming contractions of the expanded repeat
same,extrapolated repeat contraction in an HD-affected human,"[2]; extrapolation from mice, treatments spanning one year",5-25 repeats
same,difference of main peak CAG lengths saline- versus NA-treated versus tail,"[2]; four injections, 500 μM NA intra-striatal",4-7 CAG units
same,CAG length heterogeneity in cerebral cortex and cerebellum (non-injected tissues),"[2]; intra-striatal injections, left versus right side",identical patterns of CAG length heterogeneity in the right and left sides
same,rate of contractions in striatal neurons,"[2]; mice with about 150 CAG repeats, four-week period of NA treatment, 500 μM intra-striatal",~0.5 repeats lost/week
same,NA binding (band-shift),[3],can bind NA to a limited degree
